Laboratory results as given in ChEMBL document CHEMBL5390321, “Transaminases Provide Key Chiral Building Blocks for the Synthesis of Selective M1/M4 Agonists” (ACS Med Chem Lett, 2023).

Columns and labels:
Assay type in all cases: functional, cell-based
[1] = target: T1, Muscarinic acetylcholine receptor M5 (Homo sapiens, UniProt P08912); assay: Activation of human cloned muscarinic M5 receptor expressed in CHO-K1 cells by Calcium flux assay relative to control
T1 sequence (P08912 whole entry): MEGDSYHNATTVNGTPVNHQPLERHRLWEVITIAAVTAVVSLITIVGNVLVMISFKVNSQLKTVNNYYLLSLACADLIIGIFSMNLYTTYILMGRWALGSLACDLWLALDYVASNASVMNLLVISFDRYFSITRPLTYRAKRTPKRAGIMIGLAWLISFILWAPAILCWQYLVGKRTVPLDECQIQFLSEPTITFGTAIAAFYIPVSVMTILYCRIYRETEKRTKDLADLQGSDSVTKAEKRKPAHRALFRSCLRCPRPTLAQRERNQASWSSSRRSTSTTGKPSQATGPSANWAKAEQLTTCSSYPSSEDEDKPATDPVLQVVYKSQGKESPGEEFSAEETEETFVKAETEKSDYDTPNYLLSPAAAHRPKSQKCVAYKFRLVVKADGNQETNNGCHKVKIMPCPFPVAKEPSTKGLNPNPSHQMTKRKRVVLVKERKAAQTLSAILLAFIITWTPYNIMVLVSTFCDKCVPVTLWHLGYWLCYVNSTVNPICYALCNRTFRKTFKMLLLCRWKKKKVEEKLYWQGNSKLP

[2] = target: Muscarinic acetylcholine receptor M3 (Homo sapiens, UniProt P20309); assay: Activation of human cloned muscarinic M3 receptor expressed in CHO-K1 cells by Calcium flux assay relative to control
[3] = target: T2, Muscarinic acetylcholine receptor M4 (Homo sapiens, UniProt P08173); assay: Activation of human cloned muscarinic M4 receptor expressed in CHO-K1 cells by Calcium flux assay relative to control
T2 sequence (P08173 whole entry): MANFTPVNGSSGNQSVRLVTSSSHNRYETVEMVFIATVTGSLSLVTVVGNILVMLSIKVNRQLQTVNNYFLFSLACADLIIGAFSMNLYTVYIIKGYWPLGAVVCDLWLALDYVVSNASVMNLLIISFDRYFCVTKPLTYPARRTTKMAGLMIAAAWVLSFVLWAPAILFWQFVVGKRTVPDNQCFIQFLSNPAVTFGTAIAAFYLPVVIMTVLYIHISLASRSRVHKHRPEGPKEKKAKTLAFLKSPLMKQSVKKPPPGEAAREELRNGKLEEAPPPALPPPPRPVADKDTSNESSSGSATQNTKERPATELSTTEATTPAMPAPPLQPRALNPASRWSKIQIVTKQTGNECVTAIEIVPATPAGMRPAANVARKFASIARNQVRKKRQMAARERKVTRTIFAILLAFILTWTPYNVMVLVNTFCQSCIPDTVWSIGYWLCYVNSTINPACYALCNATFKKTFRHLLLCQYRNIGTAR

[4] = target: T3, Muscarinic acetylcholine receptor M2 (Homo sapiens, UniProt P08172); assay: Activation of human cloned muscarinic M2 receptor expressed in CHO-K1 cells by Calcium flux assay
T3 sequence (P08172 whole entry): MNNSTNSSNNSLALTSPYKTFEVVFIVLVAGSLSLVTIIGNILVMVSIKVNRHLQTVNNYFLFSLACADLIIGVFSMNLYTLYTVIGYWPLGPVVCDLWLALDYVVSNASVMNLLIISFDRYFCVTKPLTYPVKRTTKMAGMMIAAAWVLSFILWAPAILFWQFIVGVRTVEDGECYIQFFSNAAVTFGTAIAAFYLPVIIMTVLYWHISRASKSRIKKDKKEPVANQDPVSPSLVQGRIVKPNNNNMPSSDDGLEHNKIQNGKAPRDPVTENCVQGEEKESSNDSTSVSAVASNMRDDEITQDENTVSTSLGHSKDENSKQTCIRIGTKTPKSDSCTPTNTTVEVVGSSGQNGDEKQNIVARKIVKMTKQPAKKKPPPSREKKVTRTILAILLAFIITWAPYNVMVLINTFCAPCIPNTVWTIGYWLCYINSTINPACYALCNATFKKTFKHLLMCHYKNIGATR

Chain of Muscarinic acetylcholine receptor M3 (P20309 whole entry): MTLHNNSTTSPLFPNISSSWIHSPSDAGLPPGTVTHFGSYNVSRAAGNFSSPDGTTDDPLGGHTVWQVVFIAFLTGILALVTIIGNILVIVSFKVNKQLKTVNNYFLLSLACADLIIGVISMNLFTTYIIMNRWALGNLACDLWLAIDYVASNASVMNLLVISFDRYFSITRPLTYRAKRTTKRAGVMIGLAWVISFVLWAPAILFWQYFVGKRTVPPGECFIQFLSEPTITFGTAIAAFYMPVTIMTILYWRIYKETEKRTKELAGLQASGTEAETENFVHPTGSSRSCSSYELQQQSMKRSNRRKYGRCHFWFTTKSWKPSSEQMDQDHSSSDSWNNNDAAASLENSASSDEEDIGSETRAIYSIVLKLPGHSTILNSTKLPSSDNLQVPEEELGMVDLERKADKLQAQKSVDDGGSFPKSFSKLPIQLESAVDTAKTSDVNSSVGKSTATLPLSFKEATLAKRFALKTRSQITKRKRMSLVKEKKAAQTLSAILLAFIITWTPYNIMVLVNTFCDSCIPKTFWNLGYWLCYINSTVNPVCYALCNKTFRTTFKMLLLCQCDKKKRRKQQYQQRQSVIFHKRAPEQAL

EC50 [1] [µM] | EC50 [2] [µM] | EC50 [3] [µM] | EC50 [4] [µM] | SMILES
> 25 | > 25 | – | – | COc1ccccc1C1CCN([C@@H]2COC3(C2)CN(C(=O)C2COC2)C3)CC1
0.14 | > 25 | 0.0017 | – | COc1ccc(F)cc1C1CCN([C@@H]2CCC3(C2)CN(C(=O)C2COC2)C3)CC1
> 25 | > 25 | – | – | COc1cc(F)ccc1C1CCN([C@@H]2COC3(C2)CN(C(=O)C2COC2)C3)CC1
> 25 | > 25 | 0.0065 | 0.21 | CCOc1ccccc1C1CCN([C@@H]2CCC3(C2)CN(C(=O)C2COC2)C3)CC1
> 25 | > 25 | – | – | COc1ccc(F)cc1C1CCN([C@@H]2COC3(C2)CN(C(=O)C2COC2)C3)CC1
– | > 25 | – | – | CCOc1ccccc1C1CCN([C@@H]2CCC3(C2)CN(C(C)=O)C3)CC1
> 25 | > 25 | 0.0093 | – | COc1cc(F)ccc1C1CCN([C@@H]2CCC3(C2)CN(C(=O)C2COC2)C3)CC1
> 25 | > 25 | – | – | CCOc1ccccc1C1CCN([C@@H]2CCC3(C2)CN(C(=O)CC)C3)CC1
– | > 25 | – | – | COc1ccccc1C1CCN(C2CCC3(C2)CN(C(=O)C2COC2)C3)CC1 (single isomer, unassigned)
– | 0.11 | – | – | CCCCCCOc1nsnc1C1=CCCN(C)C1 [XANOMELINE]
